Results reported in article PMC5034337 (Scientific Reports, 2016).

Tests used:
[1] = French farmers with detectable DOM-1 levels; cited from earlier work
[2] = in vivo
[3] = in vivo; cited from earlier work
[4] = test system: HT-29 colon carcinoma cells
[5] = moderately exposed UK population; cited from earlier work
mammalian ribosomes = type: biochemical, rabbit
[6] = test system: primary human colon epithelial cells (HCEC-1CT)

Structure (SMILES)	share of the total urinary DON, average [1] [%]	detection in urine samples [2]	maximum urinary concentration [3] [µg/L]	concentration(s) with proliferative stimulus [4] [µM]	cytotoxic effect [4]	concentration from which a significant decrease of cell viability was detectable ([4]; human) [µM]	concentration(s) with proliferative stimulus (T24 bladder cancer cells) [nM]	cytotoxic effect (T24 bladder cancer cells)	lowest concentration at which the proliferative effect was present (T24 bladder cancer cells) [nM]	concentration from which a significant decrease of cell viability was detectable (T24 bladder cancer cells; human) [µM]	overall 24 h urinary excretion rate of total DON (sum of DON and its glucuronides), average [5] [%]	concentration at which translation was completely inhibited (mammalian ribosomes) [µM]	cytotoxic effect [6]	concentration from which a significant decrease of cell viability was detectable ([6]; human) [µM]	concentration(s) with proliferative stimulus (Caco-2 cells) [nM]	cytotoxic effect (Caco-2 cells)	concentration from which a significant decrease of cell viability was detectable (Caco-2 cells; human) [µM]
C=C1[C@@H]2O[C@@H]3C=C(C)C(=O)[C@@H](O)[C@]3(CO)[C@@]1(C)C[C@H]2O [DOM-1, deepoxy-DON]	< 5	no DOM-1 was detected in any sample	–	–	–	–	–	–	–	–	–	–	–	–	–	–	–
CC1=C[C@H]2O[C@@H]3[C@H](O)C[C@](C)([C@@]2(CO)[C@H](O)C1=O)[C@]31CO1 [DON, deoxynivalenol]	–	–	275	0.1	concentration dependent cytotoxicity	10	0.1 to 10	concentration dependent cytotoxicity	0.1	1	72	20	concentration dependent cytotoxicity	1	10	concentration dependent cytotoxicity	10
